Results as given in patent publication US10167262B2, “Herbicidal substituted 3-arylpyrazoles” (FMC CORPORATION, priority 2014, dated 2019).

Columns and labels:
Test in all cases: Test E pre-/postemergence greenhouse test, plant response rating 0-100
Type in all cases: in vivo
[1] = test system: Brazilian crabgrass (Digitaria horizontalis); conditions: Postemergence, scale 0 to 100
In short: (§1)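 Sow seeds in silt loam and treat preemergence; at the same time, spray postemergence on 1- to 4-leaf plants in peat/vermiculite mix. Use a non-phytotoxic solvent plus surfactant as carrier. Hold 14–21 days in greenhouse, then score visually 0–100 against controls.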

[2] = test system: arrowleaf sida (Sida rhombifolia); conditions: for Plant response rating, Arrowleaf Sida: Postemergence; for Arrowleaf Sida plant response rating: Preemergence
In short: as §1

corn (Zea mays) = conditions: scale 0 to 100; for Plant response rating, Corn: Postemergence; for Corn plant response rating: Preemergence
In short: as §1

[3] = test system: dayflower (Virginia (VA) dayflower, Commelina virginica); conditions: scale 0 to 100; for Plant response rating, Dayflower, VA: Postemergence
In short: as §1

[4] = test system: fall panicum (Panicum dichotomiflorum); conditions: scale 0 to 100; for Plant response rating, Panicum, Fall: Postemergence; for Panicum, Fall plant response rating: Preemergence
In short: as §1

[5] = test system: field bindweed (Convolvulus arvensis); conditions: scale 0 to 100; for Plant response rating, Field Bindweed: Postemergence; for Field Bindweed plant response rating: Preemergence
In short: as §1

[6] = test system: hairy beggarticks (Bidens pilosa); conditions: scale 0 to 100; for Plant response rating, Beggarticks: Postemergence; for Beggarticks plant response rating: Preemergence
In short: as §1

[7] = test system: palmer pigweed (Amaranthus palmeri); conditions: scale 0 to 100; for Plant response rating, Pigweed, Palmer: Postemergence; for Pigweed, Palmer plant response rating: Preemergence
In short: as §1

[8] = test system: sandbur (southern sandbur, Cenchrus echinatus); conditions: scale 0 to 100; for Plant response rating, Sandbur: Postemergence; for Sandbur plant response rating: Preemergence
In short: as §1

soybean (Glycine max) = conditions: scale 0 to 100; for Plant response rating, Soybean: Postemergence; for Soybean plant response rating: Preemergence
In short: as §1

[9] = test system: waterhemp (common waterhemp, Amaranthus rudis); conditions: scale 0 to 100; for Plant response rating, Waterhemp: Postemergence; for Waterhemp plant response rating: Preemergence
In short: as §1

[10] = test system: wild poinsettia (Euphorbia heterophylla); conditions: scale 0 to 100; for Plant response rating, Poinsettia, Wild: Postemergence; for Poinsettia, Wild plant response rating: Preemergence
In short: as §1

O=C(c1ccccc1)c1cn(S(=O)(=O)C(F)(F)F)nc1-c1cc(Cl)cc(Cl)c1 [Compound 2]
85: Plant response rating, Pigweed, Palmer ([7]; 62 g ai/ha)
35: Arrowleaf Sida plant response rating ([2]; 31 g ai/ha, scale 0 to 100) | Arrowleaf Sida plant response rating ([2]; 62 g ai/ha, scale 0 to 100)
98: Plant response rating, Arrowleaf Sida ([2]; 500 g ai/ha, scale 0 to 100 (0 no effect, 100 complete control)) | Arrowleaf Sida plant response rating ([2]; 250 g ai/ha, scale 0 to 100) | Plant response rating, Waterhemp ([9]; 125 g ai/ha) | Plant response rating, Waterhemp ([9]; 250 g ai/ha)
30: Waterhemp plant response rating ([9]; 125 g ai/ha)
0: Plant response rating, Crabgrass, Brazil ([1]; 31 g ai/ha) | Plant response rating, Crabgrass, Brazil ([1]; 62 g ai/ha) | Plant response rating, Crabgrass, Brazil ([1]; 125 g ai/ha) | Plant response rating, Crabgrass, Brazil ([1]; 250 g ai/ha) | Plant response rating, Crabgrass, Brazil ([1]; 500 g ai/ha) | Plant response rating, Corn (corn (Zea mays); 31 g ai/ha) | Plant response rating, Corn (corn (Zea mays); 62 g ai/ha) | Plant response rating, Corn (corn (Zea mays); 125 g ai/ha) | Plant response rating, Corn (corn (Zea mays); 250 g ai/ha) | Plant response rating, Corn (corn (Zea mays); 500 g ai/ha) | Corn plant response rating (corn (Zea mays); 31 g ai/ha) | Corn plant response rating (corn (Zea mays); 62 g ai/ha) | Corn plant response rating (corn (Zea mays); 125 g ai/ha) | Corn plant response rating (corn (Zea mays); 250 g ai/ha) | Corn plant response rating (corn (Zea mays); 500 g ai/ha) | Plant response rating, Dayflower, VA ([3]; 31 g ai/ha) | Plant response rating, Dayflower, VA ([3]; 62 g ai/ha) | Plant response rating, Dayflower, VA ([3]; 125 g ai/ha) | Plant response rating, Dayflower, VA ([3]; 250 g ai/ha) | Plant response rating, Dayflower, VA ([3]; 500 g ai/ha) | Dayflower, VA plant response rating ([3]; Preemergence, 62 g ai/ha) | Plant response rating, Panicum, Fall ([4]; 31 g ai/ha) | Plant response rating, Panicum, Fall ([4]; 62 g ai/ha) | Plant response rating, Panicum, Fall ([4]; 125 g ai/ha) | Panicum, Fall plant response rating ([4]; 31 g ai/ha) | Panicum, Fall plant response rating ([4]; 62 g ai/ha) | Panicum, Fall plant response rating ([4]; 125 g ai/ha) | Panicum, Fall plant response rating ([4]; 250 g ai/ha) | Panicum, Fall plant response rating ([4]; 500 g ai/ha) | Plant response rating, Field Bindweed ([5]; 31 g ai/ha) | Plant response rating, Field Bindweed ([5]; 62 g ai/ha) | Plant response rating, Field Bindweed ([5]; 125 g ai/ha) | Plant response rating, Field Bindweed ([5]; 250 g ai/ha) | Plant response rating, Field Bindweed ([5]; 500 g ai/ha) | Field Bindweed plant response rating ([5]; 31 g ai/ha) | Field Bindweed plant response rating ([5]; 62 g ai/ha) | Field Bindweed plant response rating ([5]; 125 g ai/ha) | Field Bindweed plant response rating ([5]; 250 g ai/ha) | Field Bindweed plant response rating ([5]; 500 g ai/ha) | Beggarticks plant response rating ([6]; 31 g ai/ha) | Beggarticks plant response rating ([6]; 62 g ai/ha) | Beggarticks plant response rating ([6]; 125 g ai/ha) | Beggarticks plant response rating ([6]; 250 g ai/ha) | Beggarticks plant response rating ([6]; 500 g ai/ha) | Pigweed, Palmer plant response rating ([7]; 31 g ai/ha) | Pigweed, Palmer plant response rating ([7]; 62 g ai/ha) | Pigweed, Palmer plant response rating ([7]; 125 g ai/ha) | Pigweed, Palmer plant response rating ([7]; 250 g ai/ha) | Plant response rating, Sandbur ([8]; 31 g ai/ha) | Plant response rating, Sandbur ([8]; 62 g ai/ha) | Plant response rating, Sandbur ([8]; 125 g ai/ha) | Plant response rating, Sandbur ([8]; 250 g ai/ha) | Plant response rating, Sandbur ([8]; 500 g ai/ha) | Sandbur plant response rating ([8]; 31 g ai/ha) | Sandbur plant response rating ([8]; 62 g ai/ha) | Sandbur plant response rating ([8]; 125 g ai/ha) | Sandbur plant response rating ([8]; 250 g ai/ha) | Sandbur plant response rating ([8]; 500 g ai/ha) | Plant response rating, Soybean (soybean (Glycine max); 31 g ai/ha) | Plant response rating, Soybean (soybean (Glycine max); 62 g ai/ha) | Plant response rating, Soybean (soybean (Glycine max); 125 g ai/ha) | Plant response rating, Soybean (soybean (Glycine max); 250 g ai/ha) | Plant response rating, Soybean (soybean (Glycine max); 500 g ai/ha) | Soybean plant response rating (soybean (Glycine max); 125 g ai/ha) | Soybean plant response rating (soybean (Glycine max); 250 g ai/ha) | Soybean plant response rating (soybean (Glycine max); 500 g ai/ha) | Waterhemp plant response rating ([9]; 31 g ai/ha) | Plant response rating, Poinsettia, Wild ([10]; 31 g ai/ha) | Plant response rating, Poinsettia, Wild ([10]; 62 g ai/ha) | Plant response rating, Poinsettia, Wild ([10]; 125 g ai/ha) | Plant response rating, Poinsettia, Wild ([10]; 250 g ai/ha) | Plant response rating, Poinsettia, Wild ([10]; 500 g ai/ha) | Poinsettia, Wild plant response rating ([10]; 62 g ai/ha) | Poinsettia, Wild plant response rating ([10]; 125 g ai/ha) | Poinsettia, Wild plant response rating ([10]; 250 g ai/ha) | Poinsettia, Wild plant response rating ([10]; 500 g ai/ha)
40: Plant response rating, Panicum, Fall ([4]; 500 g ai/ha)
95: Plant response rating, Arrowleaf Sida ([2]; 31 g ai/ha, scale 0 to 100) | Plant response rating, Arrowleaf Sida ([2]; 62 g ai/ha, scale 0 to 100) | Plant response rating, Arrowleaf Sida ([2]; 125 g ai/ha, scale 0 to 100) | Plant response rating, Arrowleaf Sida ([2]; 250 g ai/ha, scale 0 to 100) | Arrowleaf Sida plant response rating ([2]; 500 g ai/ha, scale 0 to 100) | Plant response rating, Pigweed, Palmer ([7]; 250 g ai/ha)
100: Plant response rating, Beggarticks ([6]; 125 g ai/ha) | Plant response rating, Beggarticks ([6]; 250 g ai/ha) | Plant response rating, Beggarticks ([6]; 500 g ai/ha) | Plant response rating, Pigweed, Palmer ([7]; 500 g ai/ha) | Pigweed, Palmer plant response rating ([7]; 500 g ai/ha) | Plant response rating, Waterhemp ([9]; 500 g ai/ha) | Waterhemp plant response rating ([9]; 500 g ai/ha)
90: Plant response rating, Beggarticks ([6]; 62 g ai/ha) | Plant response rating, Pigweed, Palmer ([7]; 125 g ai/ha) | Plant response rating, Waterhemp ([9]; 31 g ai/ha)
50: Arrowleaf Sida plant response rating ([2]; 125 g ai/ha, scale 0 to 100)
80: Plant response rating, Beggarticks ([6]; 31 g ai/ha) | Plant response rating, Waterhemp ([9]; 62 g ai/ha)
65: Plant response rating, Pigweed, Palmer ([7]; 31 g ai/ha) | Waterhemp plant response rating ([9]; 250 g ai/ha)
25: Plant response rating, Panicum, Fall ([4]; 250 g ai/ha)
